{"source": "patent US20230339991A1", "about": "“HYPOXIA-ACTIVATED DNA ALKYLATING AGENT AND MEDICAL USE THEREOF” (ASCENTAWITS PHARMACEUTICALS, LTD., priority 2020, published 2023)", "key": {"[1]": {"system": "PSN-1 cells", "assay": "Clonogenic assay, PSN-1", "type": "cell-based, human", "settings": "for IC90: Homo sapiens, PSN1, 3 h; for HCR: IC90 ratio normoxic/N2", "description": "(§1) The following PSN-1 cells, PANC1 cells, MiaPaCa-2 cells, H460 cells, DLD-1 WT (wild type) cells, DLD-1 BRCA2 KO (BRCA2 deletion) cells were seeded in 10 cm vitreous cell culture plates at specific cell numbers and incubated for 2 days at 37° C. and under the conditions of 5% CO2, 95% air and 100% relative humidity. On day 3, test compounds TH302 or AST-002-P2 at the specific concentrations were added to the cells, and incubated for 3 hours together with the cells under normoxic (21% O2) and hypoxic conditions (<0.01% O2), respectively. After cells were stimulated by compounds, the cells were washed once with 1×PBS and digested into single cells with pancreatic enzymes for cell counting. The above cells in specific cell numbers were reseeded in a new culture plate and cultured for 7 days to perform single cell colony formation. When single cells in compound culture plates stimulated under normoxic conditions proliferated to about 50 cells, the cultures were removed and stained with 0.5% crystal violet for 40 minutes. After staining, cells were counted for colonies using Colony Counter (VWR) and the IC90 was calculated."}, "[2]": {"system": "H460 cells", "assay": "Clonogenic assay, H460", "type": "cell-based, human", "settings": "for IC90: Homo sapiens, NCI-H460, 3 h; for HCR: IC90 ratio normoxic/N2", "description": "as §1"}, "[3]": {"system": "human lung cancer NCI-H460 subcutaneous xenograft", "assay": "Human lung cancer NCI-H460 subcutaneous xenograft model, compounds B and C", "type": "in vivo, BALB/c nude mice", "settings": "for relative tumor inhibition rate TGI (%): QD×5 per cycle, 2 cycles, Day 28", "description": "BALB/c nude mice were subcutaneously inoculated with human lung cancer NCI-H460 cells to establish human lung cancer subcutaneous transplantation tumor model. […] The positive drug Irinotecan 40 mg/kg group was administered by intraperitoneal injection once every 4 days for 7 times, and observed for 4 days."}, "[4]": {"assay": "Plasma stability, rat", "settings": "for Remaining percentage (%) / Remaining percentage: Rat plasma; for Remaining percentage: after 30 minutes", "description": "The frozen plasma was immediately melted in a water bath of 37° C. The plasma was centrifuged at 3, 220 g for 10 minutes to remove the blood clots and the supernatant was collected into a new test tube. The pH of the plasma was checked and recorded. Note: a. Only plasma that has been melted no more than twice since arrival was used; b. Only plasma in the range of pH 7 to pH 8 was used.\n1 mM of working solutions of the test compound and the control compound mevinolin were prepared in DMSO. 1 mM of the working solution of the control compound solution in […] was prepared in acetonitrile. 4 μL of the working solution was added to 796 μL of pre-incubated plasma to achieve 5 μM of final concentration. The final concentration of solvent was 0.5%.\n[…] The assay is performed in duplicate. At the end of the two hour incubation, 300 μL of quenched solution at room temperature (acetonitrile containing internal standards (acetonitrile, 100 nM Alprazolam, 500 nM Labetalol and 2 μM ketoprofen)) was added to terminate the reaction. Samples at time 0 were prepared by adding 50 μL of standard addition plasma to the new test tubes with 300 μL of quenched solution at room temperature. The test tubes were mixed by vortex for 5 minutes. The samples in the plates were centrifuged at 3, 220×g for 30 minutes at 4° C. to precipitate the proteins. 100 μL of supernatant was transferred to a new plate. The supernatant was diluted with 100 μL of water, mixed well and analysed using LC-MS/MS."}, "[5]": {"assay": "Plasma stability, monkey", "type": "in vitro ADME", "description": "The pH of the plasma was checked and recorded. Note: a.\nThe final concentration of solvent was 0.5%.\nThe assay is performed in duplicate."}, "[6]": {"settings": "21% O2, read-out: IC90 Normoxia"}, "[7]": {"settings": "<0.01% O2, read-out: IC90 Hypoxia"}}, "note": "“And” between values parts separate entries of the source, which are not always exact repeats. Equal entries are not always repeated. Where two headings read alike, the source gives them in different places. Marks after values point to notes of the source that are not given here.", "data": [{"smiles": "Cn1c(COP(=O)(NCCBr)NCCBr)cnc1[N+](=O)[O-]", "note": "[TH-302, Evofosfamide]", "values": [{"measurement": "IC90", "setting": "[1]; [6]", "value": 30500, "unit": "nM"}, {"measurement": "IC90", "setting": "[1]; [7]", "value": 164, "unit": "nM"}, {"measurement": "HCR", "setting": "[1]", "value": 186}, {"measurement": "IC90", "setting": "[2]; [6]", "value": 15600, "unit": "nM"}, {"measurement": "IC90", "setting": "[2]; [7]", "value": 21, "unit": "nM"}, {"measurement": "HCR", "setting": "[2]", "value": 741}]}, {"smiles": "O=[N+]([O-])c1ccc([C@H](OP(=O)(N2CC2)N2CC2)C(F)(F)F)c2ccccc12", "note": "[Compound B]", "values": [{"measurement": "relative tumor inhibition rate TGI (%)", "setting": "[3]; 20 mg/kg i.p.", "value": 88.51, "unit": "%"}]}, {"smiles": "O=[N+]([O-])c1ccc(C(OP(=O)(N2CC2)N2CC2)C(F)(F)F)c2ccccc12", "note": "(racemic) [Compound A]", "values": [{"measurement": "Remaining percentage (%)", "setting": "[4]; 15 min", "value": "101 ± 1.33", "unit": "%"}, {"measurement": "Remaining percentage (%)", "setting": "[4]; 60 min", "value": "88.9 ± 0.537", "unit": "%"}, {"measurement": "Remaining percentage (%)", "setting": "[4]; 90 min", "value": "84.6 ± 1.20", "unit": "%"}, {"measurement": "Remaining percentage (%)", "setting": "[4]; 120 min", "value": "69.0% and 69.0 ± 1.10%"}, {"measurement": "Remaining percentage (%)", "setting": "[4]; 2 h time course, 0 min", "value": 100, "unit": "%"}, {"measurement": "Remaining percentage", "setting": "[4]", "value": 52.11, "unit": "%"}, {"measurement": "Remaining percentage (%)", "setting": "[4]; time course, 30 min", "value": "100 ± 2.23", "unit": "%"}, {"measurement": "half-life at 5 µM", "setting": "[4]; rat plasma", "value": 3.77, "unit": "h"}, {"measurement": "plasma stability", "setting": "[4]; rat plasma", "value": "unstable"}, {"measurement": "Remaining percentage (%)", "setting": "[5]; Monkey plasma, 15 min", "value": "97.9 ± 3.72", "unit": "%"}, {"measurement": "Remaining percentage (%)", "setting": "[5]; Monkey plasma, 60 min", "value": "103 ± 4.19", "unit": "%"}, {"measurement": "Remaining percentage (%)", "setting": "[5]; Monkey plasma, 90 min", "value": "92.3 ± 2.15", "unit": "%"}, {"measurement": "Remaining percentage (%)", "setting": "[5]; Monkey plasma, 120 min", "value": "87.4% and 87.4 ± 1.59%"}, {"measurement": "Remaining percentage (%)", "setting": "[5]; Monkey plasma, 2 h time course, 0 min", "value": 100, "unit": "%"}, {"measurement": "t½", "setting": "[5]; Monkey plasma, in vitro", "value": ">373* min"}, {"measurement": "half-life at 5 µM", "setting": "[5]; Monkey plasma, in vitro, read-out: t½", "value": "> 6.22", "unit": "h"}, {"measurement": "Remaining percentage (%)", "setting": "[5]; Monkey plasma, time course, 30 min", "value": "107 ± 2.78", "unit": "%"}, {"measurement": "plasma stability", "setting": "[5]; monkey plasma", "value": "stable"}]}, {"smiles": "O=[N+]([O-])c1ccc([C@@H](OP(=O)(N2CC2)N2CC2)C(F)(F)F)c2ccccc12", "note": "(single isomer, unassigned) [Compound C]", "values": [{"measurement": "IC90", "setting": "[1]; [6]", "value": "> 1000", "unit": "nM"}, {"measurement": "IC90", "setting": "[1]; [7]", "value": 286, "unit": "nM"}, {"measurement": "HCR", "setting": "[1]", "value": ">3.5"}, {"measurement": "IC90", "setting": "[2]; [6]", "value": 66, "unit": "nM"}, {"measurement": "IC90", "setting": "[2]; [7]", "value": 41, "unit": "nM"}, {"measurement": "HCR", "setting": "[2]", "value": 1.6}, {"measurement": "relative tumor inhibition rate TGI (%)", "setting": "[3]; 20 mg/kg i.p.", "value": 90.56, "unit": "%"}, {"measurement": "relative tumor inhibition rate TGI (%)", "setting": "[3]; 40 mg/kg i.p.", "value": 94.33, "unit": "%"}, {"measurement": "complete cure rate on tumors", "setting": "[3]; group 6, 20 mg/kg, Day35", "value": 20, "unit": "%"}]}, {"smiles": "CC(OP(=O)(N1CC1)N1CC1)c1ccc([N+](=O)[O-])c2ccccc12", "note": "(stereo not shown) [Compound D]", "values": [{"measurement": "Remaining percentage", "setting": "[4]", "value": 85.49, "unit": "%"}, {"measurement": "plasma stability", "setting": "[4]; rat plasma", "value": "relatively unstable"}, {"measurement": "Remaining percentage", "setting": "[5]; Monkey plasma, after 30 minutes", "value": 87.66, "unit": "%"}]}]}
